The numbers were not newly measured in patent US20100029729A1, “COMPOUNDS” (priority 2008, published 2010), which cites them from elsewhere.

Structures are written as SMILES.

For one series, the system named is circulating lymphocytes. To be noted: animals and man.
The conditions of series [1]: clinical studies, first 24 hours of treatment.

Consider `CCCCCCCCc1ccc(CCC(N)(CO)CO)cc1` [FTY720], for which the “effect on circulating lymphocytes” value in the series with circulating lymphocytes was “reduce circulating lymphocytes in animals and man”. The bradycardia entry in series [1] is reported as “results in bradycardia in the first 24 hours of treatment”.
